Each block holds one molecule with its values, some of them ahead of it.
Assays:
[1] = target: T1, Muscarinic acetylcholine receptor M2 (Homo sapiens) (UniProt P08172); test: Selectivity interaction (Eurofins Panlabs Discovery Services Panel (enzymes and receptors)) EUB0000234b CHRM2; conditions: at 10 µM
T1 sequence (whole entry): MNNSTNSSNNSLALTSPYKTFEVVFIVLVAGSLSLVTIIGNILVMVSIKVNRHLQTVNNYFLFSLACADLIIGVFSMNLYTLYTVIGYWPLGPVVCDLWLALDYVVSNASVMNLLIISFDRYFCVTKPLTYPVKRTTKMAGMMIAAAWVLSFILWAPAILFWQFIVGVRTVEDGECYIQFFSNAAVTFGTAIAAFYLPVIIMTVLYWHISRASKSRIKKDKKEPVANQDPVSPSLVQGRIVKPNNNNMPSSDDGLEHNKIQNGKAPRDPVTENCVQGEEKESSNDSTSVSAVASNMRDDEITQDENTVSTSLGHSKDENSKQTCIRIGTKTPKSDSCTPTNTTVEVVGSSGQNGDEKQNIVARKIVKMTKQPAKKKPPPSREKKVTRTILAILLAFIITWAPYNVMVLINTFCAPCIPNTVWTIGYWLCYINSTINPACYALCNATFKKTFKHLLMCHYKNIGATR

[2] = target: Muscarinic acetylcholine receptor M2 (Homo sapiens, UniProt P08172); test: Selectivity interaction (GloSensor assay) EUB0000234b CHRM2
[3] = target: Adenosine receptor A2b (Homo sapiens) (UniProt P29275); test: Selectivity interaction (Eurofins Panlabs Discovery Services Panel (enzymes and receptors)) EUB0000234b ADORA2B; conditions: at 10 µM
Adenosine receptor A2b = Adenosine receptor A2b (Homo sapiens, UniProt P29275); test: Selectivity interaction (GloSensor assay) EUB0000234b ADORA2B
Histamine H3 receptor [4] = target: T2, Histamine H3 receptor (Homo sapiens, UniProt Q9Y5N1); test: Selectivity interaction (Eurofins Panlabs Discovery Services Panel (enzymes and receptors)) EUB0000234b HRH3; conditions: at 10 µM
Histamine H3 receptor [5] = target: T2, Histamine H3 receptor; test: Selectivity interaction (GloSensor assay) EUB0000234b HRH3
Mu-type opioid receptor [6] = target: T3, Mu-type opioid receptor (Homo sapiens, UniProt P35372); test: Selectivity interaction (Eurofins Panlabs Discovery Services Panel (enzymes and receptors)) EUB0000234b OPRM1; conditions: at 10 µM
Mu-type opioid receptor [7] = target: T3, Mu-type opioid receptor; test: Selectivity interaction (GloSensor assay) EUB0000234b OPRM1
[8] = target: Histone-lysine N-methyltransferase PRDM9 (Homo sapiens) (UniProt Q9NQV7); test: Selectivity interaction (Methyltransferase panel (DSF assay)) EUB0000234b PRDM9
[9] = target: Histone-lysine N-methyltransferase PRDM9 (Homo sapiens) (UniProt Q9NQV7); test: Selectivity interaction (NanoLuciferase thermal shift assay (NALTSA, in HEK293 cells)) EUB0000234b PRDM9; type: cell-based
[10] = target: PR domain-containing protein 11 (Homo sapiens) (UniProt Q9NQV5); test: Selectivity interaction (Methyltransferase panel (DSF assay)) EUB0000234b PRDM11
[11] = target: PR domain zinc finger protein 12 (Homo sapiens) (UniProt Q9H4Q4); test: Selectivity interaction (Methyltransferase panel (DSF assay)) EUB0000234b PRDM12
[12] = target: PR domain zinc finger protein 13 (Homo sapiens) (UniProt Q9H4Q3); test: Selectivity interaction (Methyltransferase panel (DSF assay)) EUB0000234b PRDM13
[13] = target: PR domain zinc finger protein 14 (Homo sapiens) (UniProt Q9GZV8); test: Selectivity interaction (Methyltransferase panel (DSF assay)) EUB0000234b PRDM14
[14] = target: Histone-lysine N-methyltransferase PRDM7 (Homo sapiens) (UniProt Q9NQW5); test: Selectivity interaction (Methyltransferase panel (DSF assay)) EUB0000234b PRDM7
[15] = target: PR domain zinc finger protein 8 (Homo sapiens) (UniProt Q9NQV8); test: Selectivity interaction (Methyltransferase panel (DSF assay)) EUB0000234b PRDM8
[16] = target: Histone-lysine N-methyltransferase MECOM (Homo sapiens) (UniProt Q03112); test: Selectivity interaction (Methyltransferase panel (DSF assay)) EUB0000234b MECOM
[17] = target: PR domain zinc finger protein 1 (Homo sapiens) (UniProt O75626); test: Selectivity interaction (Methyltransferase panel (DSF assay)) EUB0000234b PRDM1
[18] = target: PR domain zinc finger protein 10 (Homo sapiens) (UniProt Q9NQV6); test: Selectivity interaction (Methyltransferase panel (DSF assay)) EUB0000234b PRDM10
[19] = target: Histone-lysine N-methyltransferase PRDM16 (Homo sapiens) (UniProt Q9HAZ2); test: Selectivity interaction (Methyltransferase panel (DSF assay)) EUB0000234b PRDM16
[20] = target: PR domain zinc finger protein 2 (Homo sapiens) (UniProt Q13029); test: Selectivity interaction (Methyltransferase panel (DSF assay)) EUB0000234b PRDM2
[21] = target: Putative histone-lysine N-methyltransferase PRDM6 (Homo sapiens) (UniProt Q9NQX0); test: Selectivity interaction (Methyltransferase panel (DSF assay)) EUB0000234b PRDM6
[22] = target: Synaptic vesicular amine transporter (Homo sapiens, UniProt Q05940); test: Selectivity interaction (Enzyme and Receptor panel (MSD Pharma/Taiwan)) EUB0000750a SLC18A2
[23] = target: Inhibitor of nuclear factor kappa-B kinase subunit epsilon (Homo sapiens) (UniProt Q14164); test: Selectivity interaction (KinomeScan (DiscoverX)) EUB0000750a IKBKE; conditions: at 1 µM
[24] = target: Epidermal growth factor receptor (Homo sapiens, UniProt P00533); test: Selectivity interaction (KinomeScan (DiscoverX)) EUB0000750a EGFR; conditions: at 1 µM
[25] = target: RAC-alpha serine/threonine-protein kinase (Homo sapiens, UniProt P31749); test: Selectivity interaction (KinomeScan (DiscoverX)) EUB0000750a AKT1; conditions: at 1 µM
[26] = target: Phosphatidylinositol 4,5-bisphosphate 3-kinase catalytic subunit alpha isoform (Homo sapiens, UniProt P42336); test: Selectivity interaction (KinomeScan (DiscoverX)) EUB0000750a PIK3CA; conditions: at 1 µM
[27] = target: Citron Rho-interacting kinase (Homo sapiens) (UniProt O14578); test: Selectivity interaction (KinomeScan (DiscoverX)) EUB0000750a CIT; conditions: at 1 µM
[28] = target: T4, Serine/threonine-protein kinase LATS2 (Homo sapiens) (UniProt Q9NRM7); test: Selectivity interaction (KinomeScan (DiscoverX)) EUB0000750a LATS2; conditions: at 1 µM
T4 sequence (whole entry): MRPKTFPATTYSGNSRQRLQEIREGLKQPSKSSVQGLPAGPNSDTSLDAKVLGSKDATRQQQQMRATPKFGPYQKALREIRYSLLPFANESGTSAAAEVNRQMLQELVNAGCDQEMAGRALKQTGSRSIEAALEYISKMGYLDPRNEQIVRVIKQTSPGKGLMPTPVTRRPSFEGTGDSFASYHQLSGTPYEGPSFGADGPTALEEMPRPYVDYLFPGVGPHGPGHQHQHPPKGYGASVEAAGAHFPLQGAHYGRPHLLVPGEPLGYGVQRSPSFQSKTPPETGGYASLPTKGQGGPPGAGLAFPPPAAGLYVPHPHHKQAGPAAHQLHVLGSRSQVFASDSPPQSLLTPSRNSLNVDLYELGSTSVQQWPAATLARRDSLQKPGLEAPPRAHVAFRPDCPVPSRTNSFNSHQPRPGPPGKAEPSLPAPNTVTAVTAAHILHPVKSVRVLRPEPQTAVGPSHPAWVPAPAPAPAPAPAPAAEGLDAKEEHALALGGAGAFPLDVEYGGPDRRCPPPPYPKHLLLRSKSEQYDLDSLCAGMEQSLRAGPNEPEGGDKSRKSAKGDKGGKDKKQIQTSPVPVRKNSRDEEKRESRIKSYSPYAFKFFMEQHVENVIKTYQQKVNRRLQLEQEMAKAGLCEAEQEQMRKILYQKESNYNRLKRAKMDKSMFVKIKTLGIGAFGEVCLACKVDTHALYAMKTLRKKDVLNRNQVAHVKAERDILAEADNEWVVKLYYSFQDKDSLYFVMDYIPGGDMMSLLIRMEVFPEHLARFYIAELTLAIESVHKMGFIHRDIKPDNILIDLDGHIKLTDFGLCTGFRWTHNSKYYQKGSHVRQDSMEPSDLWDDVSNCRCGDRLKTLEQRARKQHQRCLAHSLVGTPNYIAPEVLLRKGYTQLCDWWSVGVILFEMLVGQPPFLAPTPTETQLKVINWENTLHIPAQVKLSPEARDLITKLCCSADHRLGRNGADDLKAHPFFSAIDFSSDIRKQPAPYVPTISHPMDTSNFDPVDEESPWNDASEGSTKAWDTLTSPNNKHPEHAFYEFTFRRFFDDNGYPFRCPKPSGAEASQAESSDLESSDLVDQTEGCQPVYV

Chain of Histone-lysine N-methyltransferase PRDM9 (Homo sapiens) (Q9NQV7 whole entry, the tested form may be a part): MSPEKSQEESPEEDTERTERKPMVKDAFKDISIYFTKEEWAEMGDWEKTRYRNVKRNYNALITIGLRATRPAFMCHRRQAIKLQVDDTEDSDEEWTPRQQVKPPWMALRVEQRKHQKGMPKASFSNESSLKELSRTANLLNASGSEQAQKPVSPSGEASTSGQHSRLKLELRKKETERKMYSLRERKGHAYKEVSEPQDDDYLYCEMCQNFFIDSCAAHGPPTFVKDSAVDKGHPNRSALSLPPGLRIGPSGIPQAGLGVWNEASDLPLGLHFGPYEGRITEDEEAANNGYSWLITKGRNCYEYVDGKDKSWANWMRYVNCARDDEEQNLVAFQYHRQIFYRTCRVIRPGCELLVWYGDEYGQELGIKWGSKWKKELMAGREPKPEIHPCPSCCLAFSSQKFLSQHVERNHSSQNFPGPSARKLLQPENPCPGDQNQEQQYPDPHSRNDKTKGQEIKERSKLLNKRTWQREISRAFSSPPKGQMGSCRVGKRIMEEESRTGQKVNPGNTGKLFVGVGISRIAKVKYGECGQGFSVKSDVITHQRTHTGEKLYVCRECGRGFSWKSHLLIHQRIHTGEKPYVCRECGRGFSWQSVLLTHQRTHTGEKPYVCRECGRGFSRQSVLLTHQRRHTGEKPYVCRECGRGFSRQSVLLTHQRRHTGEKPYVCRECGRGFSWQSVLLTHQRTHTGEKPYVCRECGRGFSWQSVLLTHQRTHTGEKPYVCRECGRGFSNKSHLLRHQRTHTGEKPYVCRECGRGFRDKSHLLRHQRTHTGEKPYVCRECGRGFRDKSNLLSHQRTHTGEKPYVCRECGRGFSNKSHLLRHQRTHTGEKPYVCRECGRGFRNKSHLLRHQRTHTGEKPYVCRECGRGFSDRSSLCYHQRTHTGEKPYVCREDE
T2 sequence (Q9Y5N1 whole entry): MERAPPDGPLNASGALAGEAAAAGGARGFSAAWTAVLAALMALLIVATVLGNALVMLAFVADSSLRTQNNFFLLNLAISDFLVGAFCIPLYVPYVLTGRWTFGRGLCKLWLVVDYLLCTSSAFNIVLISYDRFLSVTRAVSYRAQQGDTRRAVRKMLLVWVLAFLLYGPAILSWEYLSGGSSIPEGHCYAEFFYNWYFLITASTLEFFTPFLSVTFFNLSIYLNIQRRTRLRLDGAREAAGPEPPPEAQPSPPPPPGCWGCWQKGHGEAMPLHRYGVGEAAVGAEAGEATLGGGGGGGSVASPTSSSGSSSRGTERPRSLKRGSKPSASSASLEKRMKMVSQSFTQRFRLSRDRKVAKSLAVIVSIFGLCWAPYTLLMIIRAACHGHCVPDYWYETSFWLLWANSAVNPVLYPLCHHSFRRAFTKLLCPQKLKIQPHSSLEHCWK
T3 sequence (P35372 whole entry): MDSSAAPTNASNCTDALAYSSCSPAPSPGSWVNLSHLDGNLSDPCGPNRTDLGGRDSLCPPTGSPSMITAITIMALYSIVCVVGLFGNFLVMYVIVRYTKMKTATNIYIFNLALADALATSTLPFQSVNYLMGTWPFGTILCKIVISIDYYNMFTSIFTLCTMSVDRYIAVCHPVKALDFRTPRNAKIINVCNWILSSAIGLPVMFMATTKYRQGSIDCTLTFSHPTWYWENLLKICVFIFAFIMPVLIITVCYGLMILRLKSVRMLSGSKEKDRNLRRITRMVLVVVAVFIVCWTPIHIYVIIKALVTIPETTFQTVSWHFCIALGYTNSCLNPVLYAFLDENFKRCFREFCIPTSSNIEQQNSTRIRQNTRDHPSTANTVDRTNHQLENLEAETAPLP
Chain of Synaptic vesicular amine transporter (Q05940 whole entry): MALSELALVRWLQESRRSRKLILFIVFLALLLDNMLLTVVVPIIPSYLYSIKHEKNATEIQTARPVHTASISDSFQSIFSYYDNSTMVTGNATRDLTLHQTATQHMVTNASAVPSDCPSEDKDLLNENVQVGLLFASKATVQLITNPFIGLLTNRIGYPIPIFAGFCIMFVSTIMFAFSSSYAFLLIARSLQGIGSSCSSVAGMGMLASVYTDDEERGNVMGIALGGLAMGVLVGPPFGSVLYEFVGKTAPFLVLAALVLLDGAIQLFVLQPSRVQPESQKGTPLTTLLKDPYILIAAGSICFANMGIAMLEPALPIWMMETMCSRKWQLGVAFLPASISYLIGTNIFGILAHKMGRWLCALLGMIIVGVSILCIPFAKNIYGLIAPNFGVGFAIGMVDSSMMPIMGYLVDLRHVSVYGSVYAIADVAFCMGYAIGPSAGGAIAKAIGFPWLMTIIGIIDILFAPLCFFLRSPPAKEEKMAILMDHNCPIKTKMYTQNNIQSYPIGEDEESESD
Chain of Histone-lysine N-methyltransferase PRDM7 (Homo sapiens) (Q9NQW5 whole entry, the tested form may be a part): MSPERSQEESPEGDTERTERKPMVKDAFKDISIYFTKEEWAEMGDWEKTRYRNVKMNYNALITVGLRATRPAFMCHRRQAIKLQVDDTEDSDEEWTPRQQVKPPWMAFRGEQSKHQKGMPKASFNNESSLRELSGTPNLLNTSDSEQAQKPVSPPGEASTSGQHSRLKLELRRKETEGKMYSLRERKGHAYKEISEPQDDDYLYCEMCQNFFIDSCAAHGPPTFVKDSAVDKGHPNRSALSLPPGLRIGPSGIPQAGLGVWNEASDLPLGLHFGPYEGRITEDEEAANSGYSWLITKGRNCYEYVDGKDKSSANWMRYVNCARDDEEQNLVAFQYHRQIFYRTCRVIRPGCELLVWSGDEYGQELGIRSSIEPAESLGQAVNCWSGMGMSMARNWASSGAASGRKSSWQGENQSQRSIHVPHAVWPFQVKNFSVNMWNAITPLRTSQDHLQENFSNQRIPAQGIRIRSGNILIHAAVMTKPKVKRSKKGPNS
Chain of PR domain zinc finger protein 1 (Homo sapiens) (O75626 whole entry, the tested form may be a part): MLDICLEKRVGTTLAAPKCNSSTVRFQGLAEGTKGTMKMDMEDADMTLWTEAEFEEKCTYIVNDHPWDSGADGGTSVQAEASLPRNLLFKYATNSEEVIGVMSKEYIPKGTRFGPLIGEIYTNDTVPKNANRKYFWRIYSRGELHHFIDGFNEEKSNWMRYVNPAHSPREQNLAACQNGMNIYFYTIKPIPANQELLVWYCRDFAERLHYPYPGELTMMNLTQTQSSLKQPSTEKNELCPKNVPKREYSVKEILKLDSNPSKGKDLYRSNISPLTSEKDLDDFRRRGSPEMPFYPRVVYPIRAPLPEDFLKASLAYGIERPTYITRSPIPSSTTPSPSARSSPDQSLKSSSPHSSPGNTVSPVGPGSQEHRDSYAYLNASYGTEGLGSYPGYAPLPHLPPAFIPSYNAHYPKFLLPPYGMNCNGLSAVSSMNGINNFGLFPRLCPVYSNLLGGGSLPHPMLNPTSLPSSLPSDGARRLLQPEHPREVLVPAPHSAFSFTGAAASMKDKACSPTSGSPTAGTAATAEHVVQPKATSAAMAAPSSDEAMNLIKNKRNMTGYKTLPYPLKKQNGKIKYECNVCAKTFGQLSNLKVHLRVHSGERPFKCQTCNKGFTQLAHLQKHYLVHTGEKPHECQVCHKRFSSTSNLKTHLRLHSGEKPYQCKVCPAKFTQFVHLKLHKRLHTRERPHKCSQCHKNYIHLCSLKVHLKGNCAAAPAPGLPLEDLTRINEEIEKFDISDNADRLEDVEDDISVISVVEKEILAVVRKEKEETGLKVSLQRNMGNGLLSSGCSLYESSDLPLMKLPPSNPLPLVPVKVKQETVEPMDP
Chain of Putative histone-lysine N-methyltransferase PRDM6 (Homo sapiens) (Q9NQX0 whole entry): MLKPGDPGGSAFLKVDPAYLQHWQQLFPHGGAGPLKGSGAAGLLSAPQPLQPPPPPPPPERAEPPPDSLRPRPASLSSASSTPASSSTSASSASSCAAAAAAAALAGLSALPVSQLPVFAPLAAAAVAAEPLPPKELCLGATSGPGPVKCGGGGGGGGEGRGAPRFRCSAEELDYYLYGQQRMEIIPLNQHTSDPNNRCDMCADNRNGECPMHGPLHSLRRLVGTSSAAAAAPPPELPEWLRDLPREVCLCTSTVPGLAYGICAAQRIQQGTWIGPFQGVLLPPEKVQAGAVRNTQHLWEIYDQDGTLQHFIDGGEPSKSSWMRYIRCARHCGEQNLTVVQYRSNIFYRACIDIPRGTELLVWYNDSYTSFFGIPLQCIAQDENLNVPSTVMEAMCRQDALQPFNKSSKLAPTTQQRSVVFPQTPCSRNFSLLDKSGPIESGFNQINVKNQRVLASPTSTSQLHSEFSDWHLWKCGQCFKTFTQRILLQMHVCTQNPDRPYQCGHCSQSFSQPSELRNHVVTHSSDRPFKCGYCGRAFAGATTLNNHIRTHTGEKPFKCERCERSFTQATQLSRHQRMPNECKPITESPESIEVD
Chain of RAC-alpha serine/threonine-protein kinase (P31749 whole entry, canonical isoform): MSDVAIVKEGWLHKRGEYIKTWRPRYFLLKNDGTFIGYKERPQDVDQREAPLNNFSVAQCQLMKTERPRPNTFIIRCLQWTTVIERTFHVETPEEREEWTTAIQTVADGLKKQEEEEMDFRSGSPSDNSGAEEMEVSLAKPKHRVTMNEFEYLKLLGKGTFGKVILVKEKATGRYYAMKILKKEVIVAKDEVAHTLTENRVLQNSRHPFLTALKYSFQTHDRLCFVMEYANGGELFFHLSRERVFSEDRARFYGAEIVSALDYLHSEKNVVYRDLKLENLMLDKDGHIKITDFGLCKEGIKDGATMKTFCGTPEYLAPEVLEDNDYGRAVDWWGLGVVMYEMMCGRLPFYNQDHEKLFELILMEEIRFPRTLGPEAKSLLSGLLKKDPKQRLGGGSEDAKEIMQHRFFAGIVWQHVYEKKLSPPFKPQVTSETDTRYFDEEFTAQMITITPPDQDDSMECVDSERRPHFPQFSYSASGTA
Chain of PR domain zinc finger protein 12 (Homo sapiens) (Q9H4Q4 whole entry, the tested form may be a part): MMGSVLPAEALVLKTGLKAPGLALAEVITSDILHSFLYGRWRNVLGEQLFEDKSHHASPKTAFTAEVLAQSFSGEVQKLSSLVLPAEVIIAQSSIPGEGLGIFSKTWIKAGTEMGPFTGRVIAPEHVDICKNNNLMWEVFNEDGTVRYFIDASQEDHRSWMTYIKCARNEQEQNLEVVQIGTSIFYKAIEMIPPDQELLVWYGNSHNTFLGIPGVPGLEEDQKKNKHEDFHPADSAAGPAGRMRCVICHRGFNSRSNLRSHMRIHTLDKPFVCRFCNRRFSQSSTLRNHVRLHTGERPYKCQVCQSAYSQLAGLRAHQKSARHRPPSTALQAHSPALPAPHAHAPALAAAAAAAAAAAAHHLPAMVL

% of inhibition [1]: > 50%
EC50 [2]: > 10 µM
% of inhibition [3]: > 50%
EC50 (Adenosine receptor A2b): > 10 µM
% of inhibition (Histamine H3 receptor [4]): > 50%
EC50 (Histamine H3 receptor [5]): > 10 µM
% of inhibition (Mu-type opioid receptor [6]): > 50%
EC50 (Mu-type opioid receptor [7]): > 10 µM
dTm [8]: 5.2 K
dTm [9]: 2 K
dTm [10]: < 2 K
dTm [11]: < 2 K
dTm [12]: < 2 K
dTm [13]: < 2 K
dTm [14]: 5 K
dTm [15]: < 2 K
dTm [16]: < 2 K
dTm [17]: < 2 K
dTm [18]: < 2 K
dTm [19]: < 2 K
dTm [20]: < 2 K
dTm [21]: < 2 K
Compound: COc1cc(OC)cc(-c2noc(N3CCN(C)C4(CCN(c5ccnc(C)c5)CC4)C3)n2)c1

IC50 [22]: 0.213 µM
% of control [23]: 0%
% of control [24]: 0%
% of control [25]: 5%
% of control [26]: 36%
% of control [27]: 0%
% of control [28]: 0%
Compound: O=S(=O)(NC1CCC(c2cc(F)ccc2F)(S(=O)(=O)c2ccc(Cl)cc2)CC1)C(F)(F)F (centres undefined) [MRK-560]

From ChEMBL document CHEMBL5212743, “Selectivity Literature for EUbOPEN Chemogenomics Library wave 3” (2023)
